Experiments:
[1] = tested on: fetus absorption in mice; experiment: Effect on fetus absorption in mice; type: in vivo
Procedure: (§1) Female mice were examined by vaginal smear the morning after being caged with male mice, and if sperm or a vaginal plug was discovered, then the mice were determined to be pregnant. The retinoids were administered at the dosage indicated starting on the seventh day of pregnancy and continued once a day for the next ten days. On the 20th day after the female mice were determined to be pregnant, they were sacrificed by cervical dislocation. Both sides of the uterus were checked and the number of living embryos, dead embryos, and absorbed embryos were counted. The living embryos were further examined for bone abnormalities.

[2] = tested on: human acute myeloid leukemia (AML), neuroblastoma, teratocarcinoma, melanoma, and rat rhabdomyosarcoma cells; settings: Smith et al. 1992; cited from earlier work
[3] = tested on: bone abnormalities in mouse fetus; experiment: Bone abnormalities in mouse fetus; type: in vivo; settings: 101 mg/kg (so in the source)
Procedure: as §1
After the embryos became transparent, they were dissected and their skeletons were checked by observation under a microscope.

[4] = 10 mg/kg once a day from day 7 of pregnancy

CC1=C(/C=C/C(C)=C/C=C/C(C)=C/C(=O)O)C(C)(C)CCC1 [All Trans RA, all-trans-retinoic acid, reference compound]
Fetus Absorption (%) [1, 4]: 73.7% | Fetus Absorption, absorbed number/implanted number [1, 4]: 73/99 | Absorbed Number ([1]; 15 mg/kg, implanted number 186, 15 pregnant mice): 111 | induction of cell differentiation [2]: induces cell differentiation | Delayed Calcification, Occipital delay/fetus number [3]: 6/16 | Delayed Calcification, Sternum delay/fetus number [3]: 16/16
